According to article PMC8508710, “Biochemical Characterization of 13-Lipoxygenases of Arabidopsis thaliana” (International Journal of Molecular Sciences, 2021):
Where “and” joins values, the source holds several entries; their conditions need not be identical. Identical values can stand only once. Blank lines part the entries; values can stand above or below the molecule they belong to.

What was measured:
LOX4 [1] = target: T1, LOX4 (Arabidopsis thaliana, UniProt Q9FNX8); assay: LOX4 activity, oxygen electrode (polarography); assay type: biochemical; parameters: made in house; host or cells: E. coli Nico21(DE3), pET15b; conditions: 1.3 mM GSH, 140 µM 12-OPDA
T1 sequence (Q9FNX8 71-926): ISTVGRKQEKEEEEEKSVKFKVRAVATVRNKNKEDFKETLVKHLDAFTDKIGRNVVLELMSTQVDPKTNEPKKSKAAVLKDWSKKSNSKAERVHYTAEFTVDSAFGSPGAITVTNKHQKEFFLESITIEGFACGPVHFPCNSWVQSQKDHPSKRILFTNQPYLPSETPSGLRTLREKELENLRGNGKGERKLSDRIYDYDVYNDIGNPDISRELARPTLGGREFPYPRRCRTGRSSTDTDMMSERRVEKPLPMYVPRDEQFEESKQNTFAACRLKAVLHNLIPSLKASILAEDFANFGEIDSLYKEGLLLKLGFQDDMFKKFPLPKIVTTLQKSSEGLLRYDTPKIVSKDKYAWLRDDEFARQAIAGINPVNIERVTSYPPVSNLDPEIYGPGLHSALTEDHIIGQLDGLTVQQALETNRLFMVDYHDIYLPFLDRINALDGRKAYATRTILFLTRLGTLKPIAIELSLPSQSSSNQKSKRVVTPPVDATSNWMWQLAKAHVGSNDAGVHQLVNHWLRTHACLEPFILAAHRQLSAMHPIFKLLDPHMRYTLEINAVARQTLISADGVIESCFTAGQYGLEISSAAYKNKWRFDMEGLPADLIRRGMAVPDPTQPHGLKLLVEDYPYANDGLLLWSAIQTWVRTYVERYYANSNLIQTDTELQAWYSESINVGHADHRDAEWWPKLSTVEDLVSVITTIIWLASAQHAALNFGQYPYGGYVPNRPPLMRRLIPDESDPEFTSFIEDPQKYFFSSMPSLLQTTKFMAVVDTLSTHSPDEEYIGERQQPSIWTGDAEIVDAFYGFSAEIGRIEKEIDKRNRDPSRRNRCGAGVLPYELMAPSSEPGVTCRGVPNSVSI

LOX2 [2] = target: T2, LOX2 (Arabidopsis thaliana, UniProt P38418); parameters: made in house; host or cells: E. coli Nico21(DE3), pET15b; method as in PMID 18949503; conditions: cited from earlier work
T2 sequence (P38418 71-896): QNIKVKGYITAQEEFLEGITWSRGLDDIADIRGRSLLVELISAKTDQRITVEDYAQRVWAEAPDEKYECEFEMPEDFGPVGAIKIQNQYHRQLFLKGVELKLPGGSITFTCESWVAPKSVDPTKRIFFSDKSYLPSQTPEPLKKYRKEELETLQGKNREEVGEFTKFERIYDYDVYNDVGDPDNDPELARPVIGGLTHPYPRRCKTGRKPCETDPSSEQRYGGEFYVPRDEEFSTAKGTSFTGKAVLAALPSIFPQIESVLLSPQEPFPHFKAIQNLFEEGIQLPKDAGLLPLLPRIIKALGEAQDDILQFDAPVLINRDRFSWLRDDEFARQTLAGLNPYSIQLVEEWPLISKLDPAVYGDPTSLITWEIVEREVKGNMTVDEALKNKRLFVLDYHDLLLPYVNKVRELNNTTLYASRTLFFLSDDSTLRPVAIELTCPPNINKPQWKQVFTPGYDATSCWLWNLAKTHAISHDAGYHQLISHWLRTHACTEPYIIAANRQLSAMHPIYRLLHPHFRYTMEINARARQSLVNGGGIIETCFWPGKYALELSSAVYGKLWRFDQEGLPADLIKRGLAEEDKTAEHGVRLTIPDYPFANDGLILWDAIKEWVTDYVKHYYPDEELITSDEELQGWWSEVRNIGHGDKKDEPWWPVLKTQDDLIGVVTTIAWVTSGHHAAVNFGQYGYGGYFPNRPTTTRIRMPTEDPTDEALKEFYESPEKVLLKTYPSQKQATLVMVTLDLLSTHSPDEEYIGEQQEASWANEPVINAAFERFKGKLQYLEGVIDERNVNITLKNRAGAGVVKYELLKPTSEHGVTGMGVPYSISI

LOX2 [3] = target: T2, LOX2; assay: LOX2 activity, spectrophotometric (conjugated diene formation at 234 nm); conditions: for Relative Activity (%) LOX2: substrate specificity, 31 µM PUFA, 4 µg 13-LOX, LeA = 100%
LOX3 = target: T3, LOX3 (Arabidopsis thaliana, UniProt Q9LNR3); assay: LOX3 activity, spectrophotometric (conjugated diene formation at 234 nm); conditions: for Relative Activity (%) LOX3: substrate specificity, 31 µM PUFA, 4 µg 13-LOX, LeA = 100%
T3 sequence (Q9LNR3 71-919): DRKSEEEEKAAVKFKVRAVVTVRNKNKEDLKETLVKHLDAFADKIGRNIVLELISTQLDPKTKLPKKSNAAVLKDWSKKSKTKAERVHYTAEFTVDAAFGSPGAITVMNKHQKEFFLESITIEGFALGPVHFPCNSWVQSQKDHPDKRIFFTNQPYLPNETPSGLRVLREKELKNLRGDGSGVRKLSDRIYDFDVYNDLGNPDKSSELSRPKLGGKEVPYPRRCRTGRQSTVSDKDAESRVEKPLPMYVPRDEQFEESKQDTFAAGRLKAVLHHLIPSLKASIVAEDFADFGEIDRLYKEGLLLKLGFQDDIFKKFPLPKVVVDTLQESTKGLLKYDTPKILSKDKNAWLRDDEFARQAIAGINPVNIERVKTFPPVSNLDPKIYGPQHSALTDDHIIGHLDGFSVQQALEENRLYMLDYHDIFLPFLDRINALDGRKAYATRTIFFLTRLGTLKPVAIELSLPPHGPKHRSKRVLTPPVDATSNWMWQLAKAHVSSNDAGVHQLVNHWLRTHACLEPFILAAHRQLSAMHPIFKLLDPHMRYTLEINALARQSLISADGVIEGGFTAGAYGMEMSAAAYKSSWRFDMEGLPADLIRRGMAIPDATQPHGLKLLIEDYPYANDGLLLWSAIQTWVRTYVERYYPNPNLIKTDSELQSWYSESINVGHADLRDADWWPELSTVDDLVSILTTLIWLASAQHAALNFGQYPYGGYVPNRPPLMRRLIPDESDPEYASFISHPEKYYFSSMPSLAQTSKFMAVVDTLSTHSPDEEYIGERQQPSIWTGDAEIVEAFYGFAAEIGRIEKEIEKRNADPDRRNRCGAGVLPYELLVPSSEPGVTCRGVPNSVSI

LOX4 [4] = target: T1, LOX4; assay: LOX4 activity, spectrophotometric (conjugated diene formation at 234 nm); conditions: for Relative Activity (%) LOX4: substrate specificity, 31 µM PUFA, 4 µg 13-LOX, LeA = 100%
LOX6 = target: T4, LOX6 (Arabidopsis thaliana, UniProt Q9CAG3); assay: LOX6 activity, spectrophotometric (conjugated diene formation at 234 nm); conditions: for Relative Activity (%) LOX6: substrate specificity, 31 µM PUFA, 4 µg 13-LOX, LeA = 100%
T4 sequence (Q9CAG3 41-917): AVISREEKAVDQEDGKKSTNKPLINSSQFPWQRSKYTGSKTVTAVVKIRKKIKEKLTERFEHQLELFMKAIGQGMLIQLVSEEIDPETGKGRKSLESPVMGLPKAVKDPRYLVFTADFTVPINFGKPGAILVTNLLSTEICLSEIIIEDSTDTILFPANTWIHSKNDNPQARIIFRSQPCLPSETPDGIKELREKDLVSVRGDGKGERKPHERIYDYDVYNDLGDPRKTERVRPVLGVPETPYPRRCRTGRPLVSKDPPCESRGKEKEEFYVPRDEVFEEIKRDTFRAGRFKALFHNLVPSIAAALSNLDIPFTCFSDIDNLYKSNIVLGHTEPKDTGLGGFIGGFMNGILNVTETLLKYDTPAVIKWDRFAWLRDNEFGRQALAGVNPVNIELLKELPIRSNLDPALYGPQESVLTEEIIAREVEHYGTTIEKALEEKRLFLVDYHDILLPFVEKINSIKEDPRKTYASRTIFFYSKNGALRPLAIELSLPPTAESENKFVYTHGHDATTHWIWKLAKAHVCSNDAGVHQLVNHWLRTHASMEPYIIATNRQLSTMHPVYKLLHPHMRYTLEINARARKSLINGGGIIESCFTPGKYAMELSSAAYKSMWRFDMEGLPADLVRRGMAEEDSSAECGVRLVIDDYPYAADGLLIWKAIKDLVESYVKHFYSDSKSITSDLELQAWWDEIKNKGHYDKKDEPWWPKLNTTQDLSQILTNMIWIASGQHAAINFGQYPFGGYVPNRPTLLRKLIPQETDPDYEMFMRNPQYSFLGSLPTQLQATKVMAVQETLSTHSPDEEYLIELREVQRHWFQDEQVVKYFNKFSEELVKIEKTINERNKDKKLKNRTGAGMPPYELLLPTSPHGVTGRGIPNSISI

[5] = read-out: Inhibition after pre-incubation with PUFA
[6] = read-out: Km app, substrate LeA, Michaelis Menten fit, apparent
[7] = enzyme 0.225 µg/µL incubated 10 min 30 °C with 280 µM chemical, 4.8 µM LeA, 50 mM Tris-HCl pH 7.2, vs solvent control

Protective effect on LOX4 against 12-OPDA (LOX4 [1]; 12.2 µg LOX4): ~ 7.1% | Protective effect on LOX4 against 12-OPDA (LOX4 [1]; doubled LOX4 concentration): ~ 11.7%
SMILES: N[C@@H](CCC(=O)N[C@@H](CS)C(=O)NCC(=O)O)C(=O)O [GSH]

Relative Activity (%) LOX2 (LOX2 [3]; 50 mM Tris-HCl pH 7.2): 79% and 79 ± 7% | inhibition at 118 µM (LOX3; [5]): > 50% | Relative Activity (%) LOX3 (LOX3; 50 mM Tris-HCl pH 7.2): 12 ± 1% | inhibition at 118 µM (LOX4 [4]; [5]): > 50% | Relative Activity (%) LOX4 (LOX4 [4]; 50 mM Tris-HCl pH 7.2): 11 ± 1% | inhibition at 29 µM (LOX6; [5]): > 50% | Relative Activity (%) LOX6 (LOX6; 50 mM Tris-HCl pH 7.2): 17 ± 1%
SMILES: CCCCC/C=C\C/C=C\CCCCCCCC(=O)O [LA, linoleic acid]
LOX2 activity with PUFA (relative) (LOX2 [2]): ~ 40%

SMILES: CC/C=C\C/C=C\C/C=C\CCCCCCCC(=O)O [LeA, α-linolenic acid]
Maximum activity in pH profile (LOX2 [3]; LeA 9.8 µM, optimal pH 6.6): 3.9 ± 0.4 nmol·s^−1·mg^−1 | Km (LOX2 [3]; read-out: Km app, substrate LeA, Michaelis Menten fit, apparent (purity and iron load not considered)): 26.3 ± 2 µM | Relative Activity (%) LOX2 (LOX2 [3]; 50 mM Tris-HCl pH 7.2): 100% | Maximum activity in pH profile (LOX3; LeA 9.8 µM, optimal pH): 50.5±2.8 nmol·s^−1·mg^−1 | Relative Activity (%) LOX3 (LOX3; 50 mM Tris-HCl pH 7.2): 100% | Maximum activity in pH profile (LOX4 [4]; LeA 9.8 µM, optimal pH 7.2): 62.3 ± 0.4 nmol·s^−1·mg^−1 | Km (LOX4 [4]; [6]): 5.8 µM | Vmax app (LOX4 [4]; substrate LeA, Michaelis Menten fit, apparent): 128 ± 18 nmol/s/mg and 128 nmol/s/mg | Relative Activity (%) LOX4 (LOX4 [4]; 50 mM Tris-HCl pH 7.2): 100% | Maximum activity in pH profile (LOX6; LeA 9.8 µM, optimal pH): 1.6±0.1 nmol·s^−1·mg^−1 | Km (LOX6; [6]): 1.2 ± 0.4 µM | Relative Activity (%) LOX6 (LOX6; 50 mM Tris-HCl pH 7.2): 100%

SMILES: CCN1C(=O)C=CC1=O [NEM, N-ethylmaleimide]
Photometry Relative activity (%) LOX2 (LOX2 [3]; [7]): 35 ± 10% | Photometry Relative activity (%) LOX3 (LOX3; [7]): 29 ± 10% | Photometry Relative activity (%) LOX4 (LOX4 [4]; [7]): 3 ± 2% | Photometry Relative activity (%) LOX6 (LOX6; [7]): 13 ± 2%
